In test [1] the test system is MIA PaCa-2 human pancreatic cells. In words: MTS cell viability assay, MIA PaCa-2. The class given is cell-based. The following applies: 72 h incubation, read-out: MIA PaCa2 IC50. As to the method:
(§1) The MTS assay was performed to examine cell viability.
In general terms: Tetrazolium dyes change colour on reduction, which living cells bring about.

In test [2] the test system is HCC 1806 human triple-negative breast cancer cell. In words: MTS cell viability assay, HCC1806. It counts as cell-based. The conditions noted are these: 72 h incubation. As to the method: as §1
Test [3] has as its system Detroit 551 normal skin fibroblast. In words: MTS cell viability assay, Detroit 551. The conditions noted are these: Homo sapiens, 72 h incubation. The class given is cell-based. Here is the method:
as §1

Test [4] relates to PS-coated liposomes (DOPC/ DOPS (3:1,v/v)). Briefly: Biacore SPR binding assay with PS-containing liposomes. The following applies: for dissociation koff: zinc-coordinated, DOPC/DOPS (3:1) liposomes, 25 °C, DOPC reference. As to the method: Phospholipids, 1,2-dioleoyl-sn-glycero-3-phosphocholine (DOPC), and 1,2-dioleoyl-sn-glycero-3-[phospho-L-serine] (DOPS) were obtained from Avanti Polar Lipids (Alabaster, AL) in chloroform solutions. These stock solutions were combined to the indicated ratios. To a round-bottom flask, a 0.4 mL aliquot of lipid solution at concentration of 10 mg/mL was added and evaporated under a N2 gas stream to furnish a thin lipid film. Rehydration of lipid films was carried out in PBS buffer for at least 1 h at room temperature. Resulting suspensions were extruded through a 100 nm polycarbonate filter using an Avanti MiniExtruder following the manufacturer’s instructions. Zeta potential (ZP) and liposomes’ size distributions were recorded by dynamic light scattering (DLS) and microelectrophoresis using a Zetasizer Nano ZS instrument. Then, using a Biacore T200 biosensor equipped with an L1 sensor chip (GE Healthcare), binding kinetics between the conjugates and liposome were recorded at 25 °C. Preconditioning of new sensor chips was performed with running buffer (5% DMSO in phosphate-buffered saline (PBS) with final pH 7.4) and two consecutive 30 s pulses of 2:3 v/v 50 mM HCl/isopropanol at a flow rate of 30 μL/min. A fresh liposome capture plate was prepared for each binding cycle. In PBS buffer, liposomes were diluted to 0.5–1 mM and captured to saturation (30–150 s) across isolated flow cells at 2–5 μL/min. In a single injection, conjugates were first diluted with running buffer and injected over lipid surfaces. At flow rate of 30 μL/min, association and dissociation phases were examined for 60s. At the end of each binding cycle, the surface was regenerated by injecting 2:3 v/v 50 mM HCl/isopropanol and equilibrated with running buffer before the next injection of the test compound. […]
Figure S3. […] Zinc-coordinated dipicolylamine 24 and modified analog 11 were analyzed across a two-fold concentration series descending from 31.3 μM. The association was monitored for 1 min, and the dissociation time was 1 min. […]
(In general: Surface plasmon resonance follows binding to a sensor surface in real time, without labels.)

Test [5] in a line: Plasma incubation and tumor homogenate cleavage of conjugate. The following applies: glutathione transferase inhibitor added to tumor homogenate. The class given is in vitro ADME. The source says: Figure 3 In vivo targeting ability, plasma stability, and in vivo biodistribution of modified zinc dipicolylamine conjugates in subcutaneous HCC1806 tumor xenografts. […] (B) In vivo detection of PS-expression in the HCC1806 tumor xenograft model. Representative IVIS images of new Zn11-794 fluorescence probe in mice.

This is an account of results in paper PMC9574934, “Targeting the Phosphatidylserine-Immune Checkpoint with a Small-Molecule Maytansinoid Conjugate” (Journal of Medicinal Chemistry, 2022).

SMILES strings stand for the structures. A value given as a limit tells only on which side of the number the result lay.

Regarding `COc1cc2cc(c1Cl)N(C)C(=O)C[C@H](OC(=O)[C@H](C)N(C)C(=O)CCS)[C@]1(C)O[C@H]1[C@H](C)[C@@H]1C[C@@](O)(NC(=O)O1)[C@H](OC)/C=C/C=C(\C)C2` [Compound 14, DM1], the IC50 in test [1] is 74 ± 27 nM; in test [2], 8 ± 3 nM; in test [3], > 20000 nM.

Consider `CCCCCC(=O)Nc1cccc(CN(Cc2cc(CN(Cc3ccccn3)Cc3cccc(NC(=O)CCCCC)n3)cc(OCCCCN)c2)Cc2ccccn2)n1` [Compound 11], for which the “improvement of dissociation koff over compound 24” value in test [4] (PS-containing liposomes) was 3 fold. In addition, the dissociation koff in test [4] is given as 0.00358 s^–1.

As to `COc1cc2cc(c1Cl)N(C)C(=O)C[C@H](OC(=O)[C@H](C)N(C)C(=O)CCC(C)(C)S)[C@]1(C)O[C@H]1[C@H](C)[C@@H]1C[C@@](O)(NC(=O)O1)[C@H](OC)/C=C/C=C(\C)C2` [Compound 16, DM4], the values for the IC50 in test [1], in test [2] and in test [3] were 30 ± 3 nM, 4 nM and > 20000 nM, respectively.

Turning to `C=C(CC)C(=O)c1ccc(OCC(=O)O)c(Cl)c1Cl` [ethacrynic acid, reference compound], in test [5], the “effect on abundance of intact conjugate 40a in tumor homogenate” value is “significantly rescued”.

The compound `NCCCCOc1cc(CN(Cc2ccccn2)Cc2ccccn2)cc(CN(Cc2ccccn2)Cc2ccccn2)c1` [Compound 24, reference compound] had a dissociation koff in test [4] of 0.0113 s^–1.

One may read the IC50 as the concentration needed to halve the response being measured.
